Literature values, collected in patent US20160361270A1, “UNIFORM, HIGH BASIS WEIGHT NANOFIBER FABRICS FOR MEDICAL APPLICATIONS” (University of Washington, priority 2015, published 2016).

Legend:
[1] = not given; remark: listed apart in the source

| water solubility [µg/mL] | Compound | pKa [1] |
| --- | --- | --- |
| < 1 | Cc1cc(C)c(Nc2ccnc(Nc3ccc(C#N)cc3)n2)c(C)c1 [dapivirine] | – |
| < 100 | Cc1cc(C#N)cc(C)c1Oc1nc(Nc2ccc(C#N)cc2)nc(N)c1Br [etravirine] | – |
| – | Cc1nnc(C(=O)NC(C)(C)c2nc(C(=O)NCc3ccc(F)cc3)c(O)c(=O)n2C)o1 [raltegravir] | 7 |

| Compound | water solubility [µg/mL] | pKa [1] |
| --- | --- | --- |
| C[C@H](Cn1cnc2c(N)ncnc21)OCP(=O)(O)O [tenofovir] | > 1000 | – |
